Assay results published in publication PMC8791477, “Evaluation of SARS-CoV-2 entry, inflammation and new therapeutics in human lung tissue cells” (PLoS Pathogens, 2022).
Where a name gives a salt, the structure may show the parent alone. Read-outs that look alike come from different tables or passages of the source.

How the values were obtained:
[1] = test system: VSV*ΔG(Luc)-S virus (SARS-CoV-2 spike, D614G); details: for EC50: read-out: EC50 HLT
[2] = test system: VSV*ΔG(Luc)-S virus (SARS-CoV-2 spike, D614G); details: for EC50: read-out: EC50 Vero E6

| Compound | EC50 [1] | EC50 Vero E6 [2] | EC50 HLT [1] | other results |
| --- | --- | --- | --- | --- |
| CN(C)C(=O)COC(=O)Cc1ccc(OC(=O)c2ccc(NC(=N)N)cc2)cc1 [Camostat, Camostat mesylate] | – | – | – | viral entry in HLT cells with entry-factor blockers (in words) [1]: significantly inhibited viral entry |
| Cc1ccc(-c2cc(C(F)(F)F)nn2-c2ccc(S(N)(=O)=O)cc2)cc1 [Celecoxib] | 55.7 µM | – | – | EC50 [2]: 13 µM |
| COc1ccc2cc1Oc1ccc(cc1)C[C@H]1c3c(cc4c(c3Oc3cc5c(cc3OC)CCN(C)[C@@H]5C2)OCO4)CCN1C [Cepharanthine] | – | – | – | SI VeroE6 (CC50/EC50) [2]: 48.47; SI HLT (CC50/EC50) [1]: 2.64 |
| CC(C)C(=O)OCC(=O)[C@@]12O[C@H](C3CCCCC3)O[C@@H]1C[C@H]1[C@@H]3CCC4=CC(=O)C=C[C@]4(C)[C@H]3[C@@H](O)C[C@@]12C [Ciclesonide] | 16.4 µM | – | – | EC50 [2]: 20.5 µM |
| C[C@]12CCC(=O)C=C1CC[C@@H]1[C@@H]2[C@@H](O)C[C@@]2(C)[C@H]1CC[C@]2(O)C(=O)CO [Cortisol] | – | No effect | No effect | – |
| C[C@@H]1C[C@H]2[C@@H]3CCC4=CC(=O)C=C[C@]4(C)[C@@]3(F)[C@@H](O)C[C@]2(C)[C@@]1(O)C(=O)CO [Dexamethasone] | – | No effect | No effect | viral entry in VeroE6 cells (in words) [2]: without any apparent impact |
| O=C1C[C@@H](c2ccc(O)c(O)c2)Oc2cc(O)cc(O)c21 [Eriodictyol] | 90 µM | – | – | viral entry in HLT cells (in words) [1]: certain activity |
| CC1(C)[C@@H](O[C@H]2O[C@H](C(=O)O)[C@@H](O)[C@H](O)[C@H]2O[C@@H]2O[C@H](C(=O)O)[C@@H](O)[C@H](O)[C@H]2O)CC[C@]2(C)[C@H]3C(=O)C=C4[C@@H]5C[C@@](C)(C(=O)O)CC[C@]5(C)CC[C@@]4(C)[C@]3(C)CC[C@@H]12 [Glycyrrhizin] | – | No effect | No effect | – |
| Oc1ccc(CC2NCCc3cc(O)c(O)cc32)cc1 (stereo not shown) [Higenamine, Higenamine hydrochloride] | – | No effect | No effect | – |
| Cc1cc(O)c2c(=O)c3c(O)cc(O)c4c5c(O)cc(O)c6c(=O)c7c(O)cc(C)c8c1c2c(c34)c(c78)c65 [Hypericin] | 0.31 µM | – | – | EC50 [2]: 1.24 µM |
| CC(C)Cc1ccc(C(C)C(=O)O)cc1 (stereo not shown) [Ibuprofen] | – | No effect | No effect | – |
| O=C1Nc2ccccc2/C1=C1/Nc2ccccc2C1=O [Indirubin] | – | No effect | No effect | – |
| CCCCCCCCCCCC(=O)O [Lauric acid] | – | No effect | No effect | – |
| CC1(C)Cc2c(-c3ccccc3)c(-c3ccc(Cl)cc3)c(CC(=O)O)n2C1 [Licofelone] | 32.2 µM | – | – | – |
| O=c1cc(-c2ccc(O)c(O)c2)oc2cc(O)cc(O)c12 [Luteolin] | ~82.4 µM | – | – | EC50 [2]: ~70.7 µM |
| CN(C)C(=N)N=C(N)N [Metformin] | – | No effect | No effect | – |
| CCCCCCCCCC(=O)OCC(O)CO (stereo not shown) [Monocaprin] | – | No effect | No effect | – |
| CCCCCCCCCCCC(=O)OCC(O)CO (stereo not shown) [Monolaurin] | – | No effect | No effect | – |
| O=c1c(O)c(-c2cc(O)c(O)c(O)c2)oc2cc(O)cc(O)c12 [Myricetin] | – | No effect | No effect | – |

| Compound | EC50 [1] | EC50 Vero E6 [2] | EC50 HLT [1] | other results |
| --- | --- | --- | --- | --- |
| O=C1CN(/N=C/c2ccc([N+](=O)[O-])o2)C(=O)N1 [Nitrofurantoin] | – | No effect | No effect | – |
| Cc1cccn2c(=O)c(-c3nnn[nH]3)cnc12 [Pemirolast, Pemirolast potassium] | – | No effect | No effect | – |
| [H]/N=C(/N)N/C(=N/[H])NCCc1ccccc1 [Phenformin] | 38.2 µM | – | – | viral entry in HLT cells (in words) [1]: significantly reduced viral entry |
| C[C@]12C=CC(=O)C=C1CC[C@@H]1[C@@H]2C(=O)C[C@@]2(C)[C@H]1CC[C@]2(O)C(=O)CO [Prednisone] | – | No effect | Some effect | viral entry in VeroE6 cells (in words) [2]: without any apparent impact; viral entry in HLT cells (in words) [1]: partial reduction of viral entry |
| NC(=O)[C@@H]1CCCN1C(=O)[C@H](Cc1c[nH]cn1)NC(=O)[C@@H]1CCC(=O)N1 [Protilerin] | – | No effect | No effect | – |
| O=c1c(O)c(-c2ccc(O)c(O)c2)oc2cc(O)cc(O)c12 [Quercetin] | – | – | – | viral entry in VeroE6 cells (in words) [2]: some viral entry suppression; EC50 [2]: > 100 µM |
| CCCCCCCCCCCCOS(=O)(=O)[O-].[Na+] [SLS, Sodium lauryl sulfate] | > 100 µM | – | – | EC50 [2]: ~26.4 µM |
| N[C@@H](CC(=O)N1CCn2c(nnc2C(F)(F)F)C1)Cc1cc(F)c(F)cc1F [Sitagliptin] | – | No effect | No effect | – |
| Cc1ccnc(NS(=O)(=O)c2ccc(N)cc2)n1 [Sulfamerazine] | – | No effect | No effect | – |
| Cc1cc(NS(=O)(=O)c2ccc(N)cc2)no1 [Sulfamethoxazole] | – | No effect | No effect | – |
| CC1=C(CC(=O)O)c2cc(F)ccc2/C1=C\c1ccc([S+](C)[O-])cc1 (stereo not shown) [Sulindac] | > 100 µM | No effect | – | – |
| C[C@]1(Cn2ccnn2)[C@H](C(=O)O)N2C(=O)C[C@H]2S1(=O)=O [Tazobactam] | – | No effect | No effect | – |
| C[C@H](O)[C@H](O)[C@H]1CNc2nc(N)[nH]c(=O)c2N1 [Tetrahydrobiopterin, Tetrahydrobiopterin dihydrochloride] | – | No effect | No effect | – |
| CC(C)[C@H](N)C(=O)OCCOCn1cnc2c(=O)[nH]c(N)nc21 [Valaciclovir] | > 100 µM | – | – | viral entry in HLT cells (in words) [1]: some inhibitory potential |
| N#C[C@@H]1CCCN1C(=O)CNC12CC3CC(CC(O)(C3)C1)C2 [Vidagliptin, Vildagliptin] | – | No effect | No effect | – |
| Nc1ncnc2c1ncn2[C@@H]1O[C@H](CO)[C@@H](O)[C@@H]1O [Vidarabine] | 51.6 µM | – | – | EC50 [2]: > 100 µM |
| Ergoloid mesylates | 9.17 µM | – | – | SI VeroE6 (CC50/EC50) [2]: 3.9; EC50 [2]: 4.78 µM; SI HLT (CC50/EC50) [1]: 11.38; viral entry inhibition in HLT cells [1]: ~ 90% |
| Ivermectin | 13 µM | – | – | SI VeroE6 (CC50/EC50) [2]: 1.4; EC50 [2]: 13.9 µM; SI HLT (CC50/EC50) [1]: 7.75; viral entry in HLT cells (in words) [1]: effective antiviral |
| recombinant protein AXL | – | – | – | viral entry in HLT cells with entry-factor blockers (in words) [1]: inhibited SARS-CoV-2 entry |
